Measured values taken from patent US20160287613A1, “SALICYLATES FOR USE IN THE TREATMENT OF CANCER” (priority 2013, published 2016).
Entries after “also recorded” stand apart in the source; their conditions may differ.

What was measured:
cancer cells = assay: Patient tests with high ASA doses; format: in vivo, human; conditions: high ASA doses of 90-120 mg/kg bodyweight
Experimental: But in the course of tests it became apparent how to artificially activate the immune system to be conditioned for killing cancer cells in basic environment. The “protection factor” also can be eliminated by the administration of high ASA doses of between 90-120 mg/kg bodyweight of the patient. […] The administered doses that provide this effect are between 90-120 mg/kg bodyweight of the patient of ASA.

RT 112 cancer cells = assay: Proliferation, [3H]-TdR (3H-thymidine) incorporation assay; format: cell-based, human; conditions: FIG. 2a
Experimental: The human bladder tumor cell line RT112 or the human chronic myeloid leukemia cell line K562 were purchased from DKFZ Tumorzell- und datenbank (Institut für experimentelle Pathologie, Heidelberg, FRG) or DSM (Deutsche Sammlung von Mikroorganismen und Zellkulturen GmbH, Braunschweig, FRG) supplemented with 2 mM L-glutamine (BIOCHROM, Berlin, FRG), 1% NEAE (BIOCHROM), 10% heat-inactivated fetal calf serum (BIOCHROM), 100 U/ml penicillin and 50 μg/ml Streptomycin (BIOCHROM) at 37 oc and 5% co2. Only mycoplasma-free cell cultures were used; this was frequently tested using a specific detection kit (BOEHRINGER MANNHEIM, Mannheim, FRG). The influence of cytotoxic molecules on the proliferation of RT112 tumor cells was quantified by the measurement of the incorporated tritiated thymidine ([^3H]-TdR) into the cellular DNA of the tumor cells by liquid scintillation counting (LSC). In brief, RT112 cells are harvested, washed twice and re-suspended in culture media (2.5×10^5 /ml). 100 μl/well of the RT112 cell suspension were seeded into 96 well microtiter plates (BECTON DICKINSON) and incubated over night at 37 ° C. and 5% CO2. The supernatant was replaced by 90 μl pH-adjusted culture medium (pH 6.0-7.4) and 10 μl of the solution of preferred substances or 10 μl/well pH-adjusted culture medium alone (control). The cells were incubated for various time periods at 37° C. and 5% CO2. Thereafter, cells were washed twice and re-incubated in fresh pH-adjusted culture medium. And pulsed for 24 h by the addition of 23.125 kBq [^3]-TdR/well (925 kBq/ml, AMERSHAM, Braunschweig, FRG). After freezing and thawing, radioactive DNA of the cultures were transferred to glass fiber filters with an automatic cell harvester (PHARMACIA). The incorporated radioactivity was measured in a liquid scintillation counter (PHARMACIA).

[1] = test system: bladder cancer cell line RT 112; assay: Lactate transport (export): enzymatic determination of lactate in supernatants at 340 nm; format: cell-based, human; conditions: RT 112, 0.2 mM albumin, pH 6.5 to 7.4, FIG. 1a/b
Experimental: The human bladder tumor cell line RT112 or the human chronic myeloid leukemia cell line K562 were purchased from DKFZ Tumorzell- und datenbank (Institut für experimentelle Pathologie, Heidelberg, FRG) or DSM (Deutsche Sammlung von Mikroorganismen und Zellkulturen GmbH, Braunschweig, FRG) supplemented with 2 mM L-glutamine (BIOCHROM, Berlin, FRG), 1% NEAE (BIOCHROM), 10% heat-inactivated fetal calf serum (BIOCHROM), 100 U/ml penicillin and 50 μg/ml Streptomycin (BIOCHROM) at 37 oc and 5% co2. Only mycoplasma-free cell cultures were used; this was frequently tested using a specific detection kit (BOEHRINGER MANNHEIM, Mannheim, FRG). Qualitative, Enzymatic Determination of Lactate in Supernatants of RT112 Cells at 340 nm RT112 cells were harvested, washed twice and re-suspended in culture media to yield a density of 2×10^5/ml. 500 μl/well of the RT112 cell suspension were seeded into 24 well microtiter plates (BD) and incubated over night at 37° C. and 5% C˜. The Supernatant was replaced by 450 pl pH-adjusted culture medium (pH 6.0-7.4) and 50 111 of the solution of preferred substances or 500 111/well pH-adjusted culture medium alone (control). Again, the cells were incubated for 24 hat 37° C. and 5% CO2. The measurement of lactate in the supernatants at 340 nm (PERKIN-ELMER, Lambda 17. UV-VIS Spectrophotometer, Überlingen, FRG) was performed according to the manufacturer's instructions (SIGMA DIAGNOSTICS, Deisenhofen, FRG; Lactate: Quantitative, Enzymatic Determination of Lactate in Whole Blood at 340 nm (Procedure No. 826-UV)).

SMILES	"protection factor" of cancer cells against immune attack (cancer cells)	proliferation of cancer cells (cancer cells)	proliferation (3H-thymidine incorporation) vs control (RT 112 cancer cells; ASA at 1 mM and 2 mM, pH 6.5-7.4, 0.2 mM albumin)	lactate efflux (export) compared to the Control [1]	proliferation (3H-thymidine incorporation) vs control (RT 112 cancer cells; above pH 7.1, 0.2 mM albumin)	proliferation (3H-thymidine incorporation) vs control (RT 112 cancer cells; up to pH 7.1, 0.2 mM albumin)
CC(=O)Oc1ccccc1C(=O)O [ASA, acetylsalicylic acid]	eliminated	proliferation was stopped	appreciable enhancement of proliferation	produce stimulation of lactate export all over the pH range; also recorded: accelerate the lactate efflux all over the pH range from pH 6.5 to 7.4		
O=C(O)c1cc(-c2ccc(F)cc2F)ccc1O [Diflunisal, 5-[2,4-difluorophenyl]-salicylic acid]				produce stimulation of lactate export all over the pH range; also recorded: accelerate the lactate efflux all over the pH range from pH 6.5 to 7.4	produces enhancement	inhibits proliferation slightly
Nc1ccc(C(=O)O)c(O)c1 [PAS, 4-aminosalicylic acid]				accelerate the lactate efflux all over the pH range from pH 6.5 to 7.4		
